Tested on: Lewis rats sensitized with Complete Freund's adjuvant
Test: Adjuvant Arthritis Model in the Rat
Assay type: in vivo
Details: uninjected hind paw, day 0 to day 16; 10 mg/kg/dose i.p.
Source text: Rats sensitized to mycobacterial antigens in Complete Freund's Adjuvant can develop a rapidly destructive adjuvant arthritis. Adjuvant arthritis appears to be an autoimmune disease. Thus, T lymphocytes from immunized donors can transfer the disease to naive recipients (Pearson and Wood, 1964, J. Exp. Med. 120:547.) and susceptibility is controlled, at least in part, by class II MHC genes (Batisto, et al. 1982, Arthritis Rheum. 25:1194).
Adjuvant Arthritis Model in the Rat
Complete Freund's adjuvant is made by supplementing extra heavy mineral oil with 10 mg/ml heat killed Mycobacterium butyricum (Difco Laboratories, Detroit, Mich.). Lewis rats (Charles Rivers, Willmington, Mass.) are given a 0. 1 ml injection of adjuvant (1 mg/animal mycobacterium) subcutaneously into the right hind footpad. In the injected foot, an acute inflammatory reaction occurs which is characterized by erythema, edema and a predominantly neutrophilic cell infiltrate. This is followed by edema in the uninjected contralateral foot by days 10-12. This secondary response is accompanied by a predominantly mononuclear cell infiltrate, indicating the presence of cell-mediated immunity.
The immune response is quantitated by measuring the change in ankle diameter of the uninjected hind paw from day 0 to day 16 post sensitization. This is accomplished using a hand-held dial micrometer. […]

Structure (SMILES) | Δ Ankle Diameter
CC(C)C[C@@H](CN1CCC[C@H]1C(=O)NCCCCc1ccccc1)NS(C)(=O)=O [Example 1, 1-[2-(S)-Methanesulfonylamino-4-methylpentyl]-L-proline 4-Phenylbutylamide] | 1.6 ± 0.6 mm

Same assay, conditions: uninjected hind paw, day 0 to day 16; 10 mg/kg/dose i.p.; vs vehicle control

Structure (SMILES) | % Inhibition (of ankle swelling)
CC(C)C[C@@H](CN1CCC[C@H]1C(=O)NCCCCc1ccccc1)NS(C)(=O)=O [Example 1, 1-[2-(S)-Methanesulfonylamino-4-methylpentyl]-L-proline 4-Phenylbutylamide] | 51%

Molecular target: FKBP (Homo sapiens, UniProt P62942)
Sequence (P62942 whole entry): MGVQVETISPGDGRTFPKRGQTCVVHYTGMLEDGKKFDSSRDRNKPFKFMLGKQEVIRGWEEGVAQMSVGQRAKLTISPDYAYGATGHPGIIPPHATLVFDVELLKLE
Test: PPIase Inhibition Assay
Assay type: biochemical
Details: not given
Experimental: 1) Inhibition of PPlase Activity
This assay follows in principle the procedure described in Kofron et al., 1991, Biochemistry 30:6127. The three main reagents used are PPIase, a substrate for PPIase, and a selected inhibitor compound of the present invention. The basic principle behind this assay is the conversion of the cis isomer of the substrate to the trans form, which conversion is catalyzed by PPIase. Essentially, inhibition of this PPIase activity is measured for the selected compounds. A peptide chymotrypsin substrate containing a proline in the P2 position is only cleaved by chymotrypsin when the Phe-Pro bond is in the trans isomeric configuration. In the presence of excess chymotrypsin, all of the trans peptide isomers are cleaved within approximately five seconds, leaving only cis forms.
The cis peptide will spontaneously convert to the trans isomer at a slow rate. The cis to trans conversion is catalyzed by isomerases at a much faster rate than this spontaneous conversion. Proteins with PPIase activity are examples of such isomerases. After isomerization, the peptide is cleaved by chymotrypsin releasing p-nitroaniline which can be monitored at 390 nm. The rate of release is then calculated using a first order rate plus offset equation utilizing the ENZFITTER program (Leatherbarrow, BIOSOFT, Cambridge, United Kingdom).
In a plastic cuvette are added 950 ul of ice cold assay buffer (25 mM HEPES, pH 7.8, 100 mM NaCl), 10 uL of FKBP (2.5 uM in 10 mM Tris-Cl pH 7.5,100 mM NACl, 1 mM dithiothreitol), 25 ul of chymotrypsin (50 mg/ml in 1 mM HCl) and 10 ul of the test compound at various concentrations in dimethyl sulphoxide. The reaction is initiated by addition of 5 ul of substrate (Succinyl-Ala-Phe-Pro-Phe-para-nitroanilide, 5 mg/ml in 235 mM LiCl in trifluoroethanol).
The absorbance at 390 nm versus time is monitored for 90 sec using a Beckman DU70 spectrophotometer. The absorbance versus time data files are transferred to an IBM XT computer and the rate constants determined using the commercial Enzfitter program. For each set of data, the uncatalyzed rate of conversion is measured and the uninhibited enzymatic rate determined. The data are expressed as % Inhibition and are calculated as follows: [formula] where kobs is the rate in the presence of a selected test compound, kuncat is the rate in the absence of enzyme, and kuninh is the rate in the presence of enzyme and absence of inhibitor. Data are plotted as percent inhibition versus concentration of inhibitor. The values of the concentration of inhibitor required for 50% inhibition of enzyme activity (IC50) were determined by nonlinear least squares regression analysis.

Structure (SMILES) | IC50
CC[C@H](C)[C@H](NC(=O)[C@@H]1CCCCN1C[C@@H](NS(C)(=O)=O)[C@@H](C)CC)C(=O)NCc1ccccc1 [Example 11] | > 5 µM
CC(=O)Nc1nc(C)c(S(=O)(=O)N[C@@H](CC(C)C)CN2CCC[C@H]2C(=O)NCCCCc2ccccc2)s1 [Example 4, 1-[2-(S)-(2-Acetylamino-4-methyl-S-thiazolesulfonylamino)-4-methylpentyl]-L -proline 4-Phenylbutylamide] | > 5 µM
CC(C)C[C@@H](CN1CCC[C@H]1C(=O)NCCCCc1ccccc1)NS(=O)(=O)c1ccc(-c2ccon2)s1 [Example 8, 1-[2-(S)-(5 - [Isoxazol-25-yl]-thiophene-2-sulfonylamino)-4-methylpentyl]-L-proline 4-Phenylbutylamide] | > 5 µM
CC(C)C[C@@H](CN1CCC[C@H]1C(=O)NCCCCc1ccccc1)NS(=O)(=O)CC12CCC(CC1=O)C2(C)C (single isomer, unassigned) [Example 7] | > 5 µM
CC(C)C[C@@H](CN1CCC[C@H]1C(=O)NCCCCc1ccccc1)NS(=O)(=O)c1cccc2cccnc12 [Example 3, 1-[2-(S)-(Quinoline-8-sulfonylamino)-4-methylpentyl]-L-proline 4-Phenylbutylamide] | > 5 µM
CC(C)C[C@@H](CN1CCC[C@H]1C(=O)NCCCCc1ccccc1)NS(=O)(=O)c1c(C(C)C)cc(C(C)C)cc1C(C)C [Example 10, 1-[2-(S)-(2',4',6'-Triisopropylbenzenesulfonylamino)-4-methylpentyl]-L-proline 4-Phenylbutylamide] | > 5 µM

Next, values leading:

IC50 | Structure (SMILES)
3.5 µM | CC(C)C[C@@H](CN1CCC[C@H]1C(=O)NCCCCc1ccccc1)NS(C)(=O)=O [Example 1, 1-[2-(S)-Methanesulfonylamino-4-methylpentyl]-L-proline 4-Phenylbutylamide]
> 5 µM | CC(C)C[C@@H](CN1CCC[C@H]1C(=O)NCCCCc1ccccc1)NS(=O)(=O)/C=C/c1ccccc1 [Example 6, 1-[2-(S)-(2-phenyl-ethenesulfonylamino)-4-methylpentyl]-L-proline 4-Phenylbutylamtde]
> 5 µM | CC(C)C[C@@H](CN1CCC[C@H]1C(=O)NCCCCc1ccccc1)NS(=O)(=O)c1cccs1 [Example 5, 1-[2-(S)-(Thiophene-2-sulfonylamino)-4-methylpentyl]-L-proline 4-Phenylbutylamide]
> 5 µM | Cc1ccc(S(=O)(=O)N[C@@H](CC(C)C)CN2CCC[C@H]2C(=O)NCCCCc2ccccc2)cc1 [Example 2, 1-[2-(S)-(Toluene-4-sulfonylamino)-4-methylpentyl]-L-proline 4-Phenylbutylamide]

From patent publication US5633277A, “Sulfonamide aminomethylene derivatives as immunosuppressants” (Miles Inc., priority 1995, dated 1997)
